Values of other authors in US7410699B2, “Finely particulate composite containing carbon compound encapsulated in a polymer micelle of a block copolymer” (Japan Science and Technology Agency, priority 2003, dated 2008).

Conditions: Journal of Colloid and Interface Science, 263, (2003), 1-3

c12c3c4c5c1c1c6c7c2c2c8c3c3c9c4c4c%10c5c5c1c1c6c6c%11c7c2c2c7c8c3c3c8c9c4c4c9c%10c5c5c1c1c6c6c%11c2c2c7c3c3c8c4c4c9c5c1c1c6c2c3c41 [fullerene]
water-solubility (amount of solubilized fullerene): 0.021 mg/mL
